Assay results reported in US6645501B2, “Anti-pathogen system and methods of use thereof” (Washington University, priority 1997, dated 2003).
“Also recorded” adds a separate entry of the source.

B1: TAT-A-p16: HIV A (p17-p24) cleavage site inserted between the TAT and p16 domains (protein)
chain: GRKKRRQRRRGSQVSQNYPIVQNLQMEPAAGSSMEPSADWLATAAARGRVEEVRALLEAGALPNAPNSYGRRPIQVMMMGSARVAELLLLHGAEPNCADPATLTRPVHDAAREGFLDTLVVLHRAGARLDVRDAWGRLPVDLAEELGHRDVARYLRAAAGGTRGSNHARIDAAEGPSDIPD
modifications: left off: small tags and cut ends
notes: HIV A (p17-p24) cleavage site inserted between the TAT and p16 domains
B2: TAT-CPP32 mutant (protein)
chain: GRKKRRQRRRGYPYDVPDYACTERQANFLGKIWPGISLDNSYKMDYPEMGLCIIINNKNFHKSTGMTSRSGTDVDAANLRETFRNLKYEVRNKNDLTREEIVELMRDVSKEDHSKRSSFVCVLLSHGEEGIIFGTNGPVDLKKITNFFRGDRCRSLTGKPKLFIIQAMRGTELDCGIETSQVSQNYPIVQNLQGVDDDMACHKIPVEADFLYAYSTAPGYYSWRNSKDGSWFIQSLCAMLKQYADKLEFMHILTRVNRKVATEFESFSFDATFHAKKQIPCIVSMLTKELYFYH
modifications: left off: small tags and cut ends
B3: TAT-Dp16: TAT-p16 fusion protein containing the HIV D (p7-p1) cleavage site (protein)
chain: GRKKRRQRRRGCTERQANFLGKIWPMEPAAGSSMEPSADWLATAAARGRVEEVRALLEAGALPNAPNSYGRRPIQVMMMGSARVAELLLLHGAEPNCADPATLTRPVHDAAREGFLDTLVVLHRAGARLDVRDAWGRLPVDLAEELGHRDVARYLRAAAGGTRGSNHARIDAAEGPSDIPD
modifications: left off: small tags and cut ends
notes: TAT-p16 fusion protein containing the HIV D (p7-p1) cleavage site

Key:
Assay type in all cases: cell-based
Jurkat T-cells = assay: Transduction of FITC-labeled synthetic peptides into Jurkat T-cells (rate and intracellular concentration versus TAT); conditions: for Intracellular Concentration / Rate Compared to TAT: FITC-labeled peptide, Jurkat T-cells; for Intracellular Concentration: at equilibrium, relative to the TAT peptide; for Rate Compared to TAT: sign relative to TAT
Procedure: The following artificial (i.e. synthetic) peptides were made by conventional peptide synthesis as described above. A goal of this experiment was to produce transduction domains that could transduce more effectively as judged by the intracellular concentration in transduced cells. The transduction domains were tested against a suitable control, which typically was the “natural” TAT or an Antp transduction domain. Briefly, a FITC group was synthetically attached to N-terminus of 100% of each peptide so that transduction rate and intracellular concentration of each peptide could be quantified at equilibrium. The TAT transduction domain is recognized to be alpha-helical. In each synthetic peptide sequence, an alpha-helix was modeled with varying amounts of Arg on one face. That is, a series of synthetic peptides was designed that contained varying amounts of Arg residues on one surface and substituted with Ala residues. Both Ala and Arg residues have the highest probability/energetics for maintaining an alpha-helical structure. See FIG. 7, which depicts each peptide as a helical wheel projection. The peptides are shown below in Table 2.
The synthetic peptides were transduced into Jurkat T-cells along lines described above in Example 4.

Jurkat T cells [1] = assay: Co-transduction of uninfected Jurkat T cells with TAT-CPP32 and TAT-Protease, survival by trypan-blue exclusionary dye microscopy
Procedure: To test for activation of the TAT-CPP32 by TAT-Protease, 2×10^6 Jurkat T cells were placed in 2 ml of culture (RPMI media). To these cells, various combinations of control and experimental transducible proteins were added in 50-100 nM ranges, as follows:
The cells were assayed for survival at 18 hr post-addition by trypan-blue exclusionary dye microscopy. […] Thus, activation of TAT-CPP32 requires the presence of HIV protease.

[2] = system: Jurkat T cells infected with the NLHX strain of HIV-I; assay: Cytotoxicity of TAT-Casp3 on HIV infected Jurkat cultures, exclusionary dye viability analysis; conditions: 1 μg/ml Ritonavir prior to 100 nM TAT-Casp3WT
Excerpt: To make this determination, Jurkat T cells were infected for 7-14 days with the NLHX strain of HIV-I and examined microscopically for HIV cytopathic effects. See Westervelt, P., et al., Identification of a determinant within the HIV-1 surface envelope glycoprotein critical for productive infection of cultured primary monocytes. Proc. Natl. Acad. Sci USA 88: 3097 (1991). At the start of each transduction experiment approximately 50% of the culture was HIV positive. HIV infected cultures were transduced for 16 hr with 100 nM TAT-Casp3WT or TATCasp3MUT protein and then assayed for cell viability (FIG. 13). […] In addition, we detected both the appearance of cells containing <2N DNA content and cells with condensed nuclei in TAT-Casp3 treated cells.
To determine if TAT-Casp3WT induced apoptosis was dependent on active HIV Protease in the infected cultures, HIV infected cultures were pretreated with 1 μg/ml Ritonavir prior to transduction with 100 nM TAT-Casp3WT protein (FIG. 5). […] In addition, the observed increased survival of Ritonavir treated cells is consistent with increased longevity of protease inhibitor treated HIV infected cells. See Coffin, J. M., et al. (supra).
The specific killing of HIV infected cells shown in FIG. 5 is explained in more detail as follows. Jurkat T cells were infected for 7-14 days with HIV strain NLHX, then transduced with TAT-Casp3WT (WT) or TAT-Casp3MUT (MUT) proteins for 16 hr and assayed for cell viability. […] Ctrl, control addition of PBS to cultures; abscissa, % viability of HIV positive cells in the population at start of transduction; error bars represent SD.
(§1) 1. […] See Lissy, N. A., et al. (supra). […] See Ezhevsky, S. A., et al. (supra). […] See Xiang, J., et al., (supra). […] See Xiang, J., et al., (supra). […] See Ezhevsky, S. A., et al. (supra).

[3] = system: Jurkat T-cells infected by HIV (strain NLHX); assay: Killing of HIV-infected Jurkat T-cells, trypan blue exclusion and microscopy
Procedure: About 5×10^6 Jurkat T-cells were infected by HIV (strain NLHX; about 1×10^5 to 1×10^6 infectious virus per ml). The cells were propagated in RPMI media. Approximately 4 to 7 days after the infection, the media was removed from the plates and about 35 to 45 nanomoler of the TAT-CPP32 fusion protein was added to the cells. The cells were incubated with the fusion proteins for about 30 minutes to allow transduction into the cells. […] Subsequently, media was added back to the plates and after about 18 hours post-transduction, the cells were examined for cell killing using conventional trypan blue exclusion and microscopy.
Briefly, cells were infected and transduced as described in Example 6 above. Following the transduction, about 1 μg/ml Ritonavir was added to the cell media and allowed to incubate with the cells for about 18 hours. The cells were then assayed for cell killing by conventional trypan blue exclusion and microscopy. […]

HIV Protease = molecular target: T1, HIV Protease (Human immunodeficiency virus type 1 group M subtype B, UniProt P04585); assay: In vivo substrate cleavage by co-transduced TAT-HIV Pr in Jurkat T cells, immunoblot
T1 construct: PCR cloning the HIV Protease gene from HXB2R HIV strain; 6xHis (from the pTAT vector) (N); made in house; the purified protein was added to Jurkat T cells
Procedure: To assay for in vivo cleavage, p 16(−) Jurkat T cells were transduced with 100 nM TAT-Ap16 or control TAT-p16 protein (no HIV cleavage site) alone or in combination with 50 nM TATHIV Pr fusion protein for 5 hr and analyzed by anti-p16 immunoblot for in vivo cleavage at the HIV A proteolytic cleavage site (FIG. 10A). […] Size analysis of the cleaved TAT-A-p 16 protein was consistent with retention of the residual HIV half site present on the N′ terminus of p 16 (FIG. 10A, see lane 4 vs. 5).
Further, the TAT-Casp3MUT protein was transduced in combination with TAT-HIV Pr protein into cells (FIG. 10B).
The in vivo processing in co-transduced cells shown in FIGS. 10A and 10B is explained in more detail as follows. FIG. 10A. Cultures of p16(−) Jurkat T cells were transduced with TAT-p 16 or TAT-A-p 16 substrate proteins in combination with TATHIV Pr proteins for 5 hr and subjected to anti-p 16 immunoblot analysis. […] WCE, HepG2 whole cell lysate containing wild type endogenous p16; A-p16, cleaved TAT-A-16 product retaining the HIV half site on p16. FIG. 10B. Cultures of Jurkat T cells were transduced with TATCasp3MUT protein (TAT-“D” site-p 17 domain-“A” site-p12 domain) alone or in combination with TAT-HIV Pr (Pr) protein as indicated and immunoblotted with anti-Caspase-3 antibodies specific for the p17 domain. TAT-D-p17-A, cleaved product of TAT-Casp3 containing the N′ terminal HIV A half site.
as §1

Jurkat T cells [4] = assay: FACS and confocal analysis of FITC-labeled TAT fusion proteins added to Jurkat T cells; conditions: FITC-labeled protein added to media of Jurkat T cells
Procedure: To test the ability of TAT-Casp3 proteins to transduce into cells, TAT-Casp3 proteins were conjugated to fluorescein (FITC), then added directly to the media of Jurkat T cells and analyzed by Flow Cytometry (FACS) (FIGS. 9B-C). Both TAT-Casp3WT and TAT-Casp3MUT proteins rancidly transduced into ˜100% of cells, achieving maximum intracellular concentration in less than 20 min. In addition, based on the narrow peak width before and after addition of FITC labeled proteins, individual cells within the population contain near identical intracellular concentrations of TAT-Casp3-FITC protein. […] Thus, TAT-Casp3 proteins readily transduce into 100% of all cells inca rapid and concentration-dependent fashion.
The generation and transduction of TAT fusion proteins shown in FIGS. 9A-E are explained in more detail as follows: FIG. 9A. Diagram depicting HIV cleavage site sequences and domains of TAT fusion proteins. FIGS. 9B-D. FACS kinetic analysis of fluorescein (FITC) labeled TAT-Casp3WT, TAT-Casp3MUT and TAT-HIV Pr proteins added to cells at 0, 20 and 30 min. FIG. 9E. FACS dose analysis of 3, 6, and 12 nM TAT-Casp3WT-FITC protein added to cells at I hr post-addition. Note rapid, concentration-dependent transduction of all FITC labeled protein into ˜100% of cells and near identical intracellular concentration within the population as measured by FACS peak width of control vs. transduced cells.
as §1

[5] = 50-100 nM, uninfected Jurkat T cells, 18 hr post-addition

Row | Molecule | Intracellular Concentration (Jurkat T-cells) | Rate Compared to TAT (Jurkat T-cells) | also measured
1 | 6 (YARAARRAARA; human) [compound 6] | 5 X | = | 
2 | CC(C)c1nc(CN(C)C(=O)N[C@H](C(=O)N[C@@H](Cc2ccccc2)C[C@H](O)[C@H](Cc2ccccc2)NC(=O)OCc2cncs2)C(C)C)cs1 [Ritonavir, reference compound] |  |  | effect of the protease inhibitor on TAT-CPP32 wild type killing (Jurkat T cells [1]; added to TAT-CPP32 wild type plus TAT-Protease experiment): loss of specific TAT-CPP32 wild type killing; effect of pretreatment on TAT-Casp3WT killing of HIV infected cells [2]: protection from TAT-Casp3WT induced apoptosis; also recorded: protects infected cells; effect on the ability of TAT-CPP32 to kill infected cells ([3]; about 1 μg/ml Ritonavir added after transduction, about 18 hours): essentially blocked
3 | 2 (YGRKKRRQRRR; human) [compound 2] | 1 X | = | 
4 | 10 (CTERQANFLGKIWP; human) [compound 10] | 1 X | < | 
5 | 1 (AKIWFQNRRMKWKKEN; human) [compound 1] | 1 X | = | 
6 | 5 (YARAARRAARR; human) [compound 5] | 10 X | = | 
7 | 3 (YARKARRQARR; human) [compound 3] | 10 X | = | 
8 | 4 (YARAAARQARA; human) [compound 4] | 5 X | = | 
9 | RQIKIWFQNRRMKWKK [SEQ ID NO. 10, reference compound] |  |  | transduction rate relative to the TAT peptide (in words) (Jurkat T-cells): slower transduction rate
10 | 8 (YAAARRRRRRR; human) [compound 8] | 5 X | = | 
11 | 7 (YARRRRRRRRR; human) [compound 7] | 5 X | = | 
12 | B1 |  |  | cleavage at the HIV cleavage site when co-transduced with TAT-HIV Pr (HIV Protease; 100 nM substrate, 50 nM TAT-HIV Pr, Jurkat T cells, immunoblot): specific substrate cleavage; cells transduced (Jurkat T cells [4]): 100%
13 | B2 |  |  | cytotoxicity when added alone (Jurkat T cells [1]; [5]): minimal cytotoxicity; loss of viable cells when added plus TAT-Protease (Jurkat T cells [1]; [5]): not; killing of HIV-infected cells ([3]; about 35 to 45 nanomoler, about 18 hours post-transduction): not capable of killing
14 | B3 |  |  | preference between HIV A site and D site (HIV Protease; co-transduction with TAT-HIV Pr): HIV A site was preferentially cleaved over
